Active and inactive are the calls of the source.
How the values were obtained:
Cytochrome P450 2C19 = Cytochrome P450 2C19 (Homo sapiens, UniProt P33261); experiment: Cytochrome panel assay with activity outcomes. Panel member name: p450-cyp2c19 Compounds with AC50 equal or less than 10 uM are considered active; type: functional; conditions: read-out: AC50
Cytochrome P450 2D6 = Cytochrome P450 2D6 (Homo sapiens, UniProt P10635);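 note: CYP2D6 member of a cytochrome P450 panel assay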
Cytochrome P450 2C9 = Cytochrome P450 2C9 (Homo sapiens, UniProt P11712)
Sequence of Cytochrome P450 2C9 (P11712 whole entry): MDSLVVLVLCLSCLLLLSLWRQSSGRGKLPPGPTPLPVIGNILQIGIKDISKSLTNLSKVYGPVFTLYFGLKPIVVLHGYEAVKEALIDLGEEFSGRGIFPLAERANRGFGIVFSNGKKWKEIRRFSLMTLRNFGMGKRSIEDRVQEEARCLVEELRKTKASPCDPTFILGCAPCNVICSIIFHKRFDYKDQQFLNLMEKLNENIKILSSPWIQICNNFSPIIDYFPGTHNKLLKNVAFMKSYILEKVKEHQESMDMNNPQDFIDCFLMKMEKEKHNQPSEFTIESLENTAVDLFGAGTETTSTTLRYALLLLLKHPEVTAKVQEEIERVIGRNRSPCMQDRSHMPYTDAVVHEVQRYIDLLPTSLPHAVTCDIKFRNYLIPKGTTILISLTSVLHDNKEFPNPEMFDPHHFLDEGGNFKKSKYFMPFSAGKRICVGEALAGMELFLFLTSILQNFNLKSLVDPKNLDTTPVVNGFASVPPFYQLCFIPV

Large T antigen = Large T antigen (Simian virus 40, UniProt P03070); type: functional, Betapolyomavirus macacae;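 note: Confirmatory-stage PubChem screen for compounds that inhibit SV40 T antigen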
Sequence of Large T antigen (P03070 whole entry): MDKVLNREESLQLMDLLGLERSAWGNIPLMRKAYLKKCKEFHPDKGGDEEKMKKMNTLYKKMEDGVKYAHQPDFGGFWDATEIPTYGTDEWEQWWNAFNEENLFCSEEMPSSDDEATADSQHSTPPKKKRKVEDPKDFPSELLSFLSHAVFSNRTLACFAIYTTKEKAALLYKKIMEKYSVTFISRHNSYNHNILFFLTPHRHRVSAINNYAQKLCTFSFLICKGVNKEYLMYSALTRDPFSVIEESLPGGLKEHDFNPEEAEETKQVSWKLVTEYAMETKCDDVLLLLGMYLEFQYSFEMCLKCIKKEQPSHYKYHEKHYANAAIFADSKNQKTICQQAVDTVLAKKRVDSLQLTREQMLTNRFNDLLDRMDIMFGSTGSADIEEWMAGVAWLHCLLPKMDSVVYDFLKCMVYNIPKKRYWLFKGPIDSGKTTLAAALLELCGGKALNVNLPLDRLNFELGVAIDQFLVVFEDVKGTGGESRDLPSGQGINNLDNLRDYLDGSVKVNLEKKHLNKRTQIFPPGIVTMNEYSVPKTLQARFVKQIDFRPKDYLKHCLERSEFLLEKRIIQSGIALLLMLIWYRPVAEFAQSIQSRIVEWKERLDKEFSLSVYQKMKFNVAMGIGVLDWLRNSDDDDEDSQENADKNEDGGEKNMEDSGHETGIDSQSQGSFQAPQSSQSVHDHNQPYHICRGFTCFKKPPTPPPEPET

[1] = target: T1, Rac GTPase-activating protein 1 (Homo sapiens, UniProt Q9H0H5); experiment: MgcRacGAP GTPase-activating activity inhibitors, confirmation, biochemical, ADP Hunter fluorescence, primary and confirmatory (AID 624330); type: functional
T1 sequence (Q9H0H5 whole entry): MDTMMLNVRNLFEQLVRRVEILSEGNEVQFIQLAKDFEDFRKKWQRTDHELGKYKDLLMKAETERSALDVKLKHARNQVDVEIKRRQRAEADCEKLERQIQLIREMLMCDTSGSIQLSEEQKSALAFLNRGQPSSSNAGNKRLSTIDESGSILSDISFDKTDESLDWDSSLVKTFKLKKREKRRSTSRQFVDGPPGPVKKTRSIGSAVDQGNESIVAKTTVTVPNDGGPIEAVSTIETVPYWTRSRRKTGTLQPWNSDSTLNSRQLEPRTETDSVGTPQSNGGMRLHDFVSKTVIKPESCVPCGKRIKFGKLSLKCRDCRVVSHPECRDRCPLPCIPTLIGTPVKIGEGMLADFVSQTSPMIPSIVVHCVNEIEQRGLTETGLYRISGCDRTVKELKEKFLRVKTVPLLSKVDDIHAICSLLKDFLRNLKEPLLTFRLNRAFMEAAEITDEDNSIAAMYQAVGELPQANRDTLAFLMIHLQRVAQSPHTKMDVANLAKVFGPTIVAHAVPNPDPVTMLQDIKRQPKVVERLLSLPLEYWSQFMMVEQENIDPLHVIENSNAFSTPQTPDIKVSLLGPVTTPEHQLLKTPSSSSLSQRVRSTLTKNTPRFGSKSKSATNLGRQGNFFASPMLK

[2] = target: Eukaryotic translation initiation factor 4E (Mus musculus, UniProt P63073); experiment: eIF4E–eIF4G protein interaction inhibitors, dose response, biochemical, TR-FRET (AID 855); type: functional;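 note: potency for disrupting eIF4E binding to eIF4GI seen as loss of FRET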
Sequence of Eukaryotic translation initiation factor 4E (P63073 whole entry): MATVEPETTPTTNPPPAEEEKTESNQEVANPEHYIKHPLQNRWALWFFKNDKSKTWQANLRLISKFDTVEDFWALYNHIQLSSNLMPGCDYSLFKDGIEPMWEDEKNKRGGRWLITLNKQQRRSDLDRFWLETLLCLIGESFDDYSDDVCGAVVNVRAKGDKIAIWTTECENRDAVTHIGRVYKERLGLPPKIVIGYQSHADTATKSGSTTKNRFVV

Streptococcus = experiment: Group A Streptococcus viability loss, dose response, counter-screen for streptokinase expression inhibitor project, luminescence, BacTiterGlo (AID 1915); type: functional, organism-based;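 note: potency for reduction of bacterial viability or growth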
BJ [3] = experiment: cytotoxicity toward BJ-TERT-LT-ST fibroblasts, dose response, cell-based, RAS-independent, luminescence (AID 1935); type: functional; conditions: Homo sapiens;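 note: BJ fibroblasts immortalized with TERT plus LT and ST oncogenes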
[4] = cytotoxicity toward DRD oncogenic fibroblasts, dose response, cell-based, non-viral oncogenic, luminescence (AID 1934); type: functional; conditions: Homo sapiens
INS1 = experiment: beta cell apoptosis inhibitors, cytokine rescue, dose response, luminescence, retest (AID 449756); type: functional, cell-based; conditions: Rattus norvegicus;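 note: cell death triggered by IL-1 beta plus TNF-alpha plus IFN-gamma mixture; protective hits raise ATP signal compared with cytokine alone wells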
BJ [5] = experiment: cells; type: functional, cell-based; conditions: Homo sapiens
BJ [6] = experiment: cytotoxicity toward BJ-TERT fibroblasts, dose response, cell-based, RAS-independent, luminescence (AID 1933); type: functional; conditions: Homo sapiens
Streptokinase A = target: T2, Streptokinase A (Streptococcus pyogenes serotype M1, UniProt P10520); experiment: S. pyogenes streptokinase expression inhibitors, potency, dose response, plasminogen activation absorbance, OD405 (AID 1914); type: functional, Streptococcus pyogenes M1 GAS;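 note: secreted streptokinase activity via plasminogen activation per viability signal from cell pellet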
T2 sequence (P10520 whole entry): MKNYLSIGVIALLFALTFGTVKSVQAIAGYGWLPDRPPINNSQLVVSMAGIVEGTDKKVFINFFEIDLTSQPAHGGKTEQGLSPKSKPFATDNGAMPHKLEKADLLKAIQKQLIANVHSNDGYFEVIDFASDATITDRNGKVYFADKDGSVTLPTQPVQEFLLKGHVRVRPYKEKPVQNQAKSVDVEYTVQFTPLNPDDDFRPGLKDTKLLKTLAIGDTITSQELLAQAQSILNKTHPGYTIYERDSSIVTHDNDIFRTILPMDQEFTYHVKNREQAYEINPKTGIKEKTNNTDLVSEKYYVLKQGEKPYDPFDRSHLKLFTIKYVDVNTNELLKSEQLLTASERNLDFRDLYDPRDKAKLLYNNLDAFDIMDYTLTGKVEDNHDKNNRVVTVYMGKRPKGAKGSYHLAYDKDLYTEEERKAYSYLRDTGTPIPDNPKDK

[7] = Luminescence Cell-Based Dose Retest to Confirm Inhibitors of Cancer Stem Cells. [Related pubchem assays (depositor defined):AID2717, AID2721]; type: functional; conditions: Homo sapiens
[8] = tested on: Streptococcus sp. 'group A'; experiment: growth inhibition of control SK(-) GAS strain, dose response, counter-screen for streptokinase expression inhibitor project, luminescence, kanamycin, BacTiterGlo, confirmation (AID 1900); type: functional, organism-based
[9] = target: FAD-linked sulfhydryl oxidase ALR (Homo sapiens, UniProt P55789); experiment: inhibitors of human ALR sulfhydryl oxidase, dose response, biochemical, H2O2 detection, luminescence, cherry-pick (AID 493248)
Sequence of FAD-linked sulfhydryl oxidase ALR (P55789 whole entry): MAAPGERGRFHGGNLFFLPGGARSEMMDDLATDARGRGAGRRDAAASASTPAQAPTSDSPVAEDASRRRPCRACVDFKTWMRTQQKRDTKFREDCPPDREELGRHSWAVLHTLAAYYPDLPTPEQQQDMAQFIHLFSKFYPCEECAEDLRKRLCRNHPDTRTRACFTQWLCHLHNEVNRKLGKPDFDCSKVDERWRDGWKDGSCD

Genome polyprotein = Genome polyprotein (dengue virus type 2, UniProt P29990); experiment: Dengue-2 NS5 methyltransferase inhibitors, primary screen, biochemical, confirmation dose response (AID 588689); type: functional
Sequence of Genome polyprotein (P29990 2492-3391 limits assumed): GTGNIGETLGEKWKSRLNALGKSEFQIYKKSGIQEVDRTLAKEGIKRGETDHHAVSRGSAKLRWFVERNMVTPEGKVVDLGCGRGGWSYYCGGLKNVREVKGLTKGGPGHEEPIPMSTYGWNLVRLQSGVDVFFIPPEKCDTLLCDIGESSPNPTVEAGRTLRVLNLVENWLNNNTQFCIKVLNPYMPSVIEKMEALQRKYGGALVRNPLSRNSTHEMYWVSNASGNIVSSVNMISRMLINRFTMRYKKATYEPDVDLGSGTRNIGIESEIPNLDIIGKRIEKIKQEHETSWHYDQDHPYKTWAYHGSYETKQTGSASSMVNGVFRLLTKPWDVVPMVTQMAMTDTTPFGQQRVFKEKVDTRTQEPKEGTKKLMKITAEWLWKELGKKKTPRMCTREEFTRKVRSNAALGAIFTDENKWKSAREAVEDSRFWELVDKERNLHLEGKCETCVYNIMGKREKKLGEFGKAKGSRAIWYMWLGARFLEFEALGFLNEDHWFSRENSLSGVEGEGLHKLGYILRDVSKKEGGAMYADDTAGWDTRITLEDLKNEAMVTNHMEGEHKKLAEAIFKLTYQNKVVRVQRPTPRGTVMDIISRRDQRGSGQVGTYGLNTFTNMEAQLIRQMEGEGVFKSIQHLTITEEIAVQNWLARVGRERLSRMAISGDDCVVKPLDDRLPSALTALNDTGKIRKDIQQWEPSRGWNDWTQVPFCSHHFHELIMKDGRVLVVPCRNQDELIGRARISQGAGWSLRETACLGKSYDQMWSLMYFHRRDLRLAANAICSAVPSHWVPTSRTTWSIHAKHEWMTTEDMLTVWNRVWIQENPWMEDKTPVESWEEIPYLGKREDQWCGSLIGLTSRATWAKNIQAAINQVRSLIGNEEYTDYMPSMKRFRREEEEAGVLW

Sequence of Cytochrome P450 2C19 (P33261 whole entry): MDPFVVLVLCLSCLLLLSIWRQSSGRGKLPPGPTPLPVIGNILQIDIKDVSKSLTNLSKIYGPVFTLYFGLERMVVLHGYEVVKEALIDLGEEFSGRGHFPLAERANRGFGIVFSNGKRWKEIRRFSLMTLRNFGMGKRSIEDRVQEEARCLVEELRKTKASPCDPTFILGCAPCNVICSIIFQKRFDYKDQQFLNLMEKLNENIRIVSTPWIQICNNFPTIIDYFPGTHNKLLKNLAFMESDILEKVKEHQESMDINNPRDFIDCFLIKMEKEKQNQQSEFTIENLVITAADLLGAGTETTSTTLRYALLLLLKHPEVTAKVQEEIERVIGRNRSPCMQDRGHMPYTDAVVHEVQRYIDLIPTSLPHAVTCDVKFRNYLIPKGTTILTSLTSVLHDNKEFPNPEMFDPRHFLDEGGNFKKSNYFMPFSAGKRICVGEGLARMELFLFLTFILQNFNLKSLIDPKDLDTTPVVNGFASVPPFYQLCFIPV
Sequence of Cytochrome P450 2D6 (P10635 whole entry): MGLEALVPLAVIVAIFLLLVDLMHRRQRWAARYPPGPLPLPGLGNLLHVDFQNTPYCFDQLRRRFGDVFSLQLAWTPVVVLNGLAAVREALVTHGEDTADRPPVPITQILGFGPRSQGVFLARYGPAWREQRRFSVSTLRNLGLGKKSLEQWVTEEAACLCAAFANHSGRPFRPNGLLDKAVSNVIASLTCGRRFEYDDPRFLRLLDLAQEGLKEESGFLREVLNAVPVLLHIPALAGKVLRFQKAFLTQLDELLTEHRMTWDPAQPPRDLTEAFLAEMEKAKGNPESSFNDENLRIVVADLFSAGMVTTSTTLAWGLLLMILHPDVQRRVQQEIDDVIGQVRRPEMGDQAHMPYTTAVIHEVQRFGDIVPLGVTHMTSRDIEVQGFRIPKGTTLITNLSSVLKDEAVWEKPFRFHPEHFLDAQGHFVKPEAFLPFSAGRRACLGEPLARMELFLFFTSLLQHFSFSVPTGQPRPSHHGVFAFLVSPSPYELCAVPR

CN1CCN(NC(=O)c2cccc(F)c2)CC1
AC50 (Cytochrome P450 2C19): 39.8 µM (inconclusive)
AC50 (Cytochrome P450 2D6): 39.8 µM (inconclusive)
AC50 (Cytochrome P450 2C9): 0.355 µM (inconclusive)

CCN(CC)c1ccc(/C=N/N2CCOCC2)cc1
IC50 (Large T antigen): 5.98 µM (active)
IC50 [1]: 40.8 µM (active)

Cc1noc(C)c1-c1nc(Nc2ccncc2)c2ccccc2n1
AC50 (Cytochrome P450 2C19): 31.6 µM (inconclusive)
AC50 (Cytochrome P450 2D6): 12.6 µM (inconclusive)

O=S1(=O)N=C(Nc2ccc(O)cc2)c2ccccc21
IC50 (Large T antigen): 5.09 µM (active)
IC50 [1]: 22.3 µM (active)

Cn1nccc1C(=O)Nc1ccc(Cl)cc1
AC50 (Cytochrome P450 2D6): 0.282 µM (inconclusive)

CN(C)c1ccc2nc3c(C(=O)O)cc(=O)c(O)c-3oc2c1
AC50 (Cytochrome P450 2C19): 2.51 µM (inconclusive)
AC50 (Cytochrome P450 2D6): 3.16 µM (inconclusive)

COc1cc(/C=N/NC(=O)C(=O)NCC2CCCO2)ccc1O (configuration not stated)
IC50 (Large T antigen): 11.7 µM (active)
IC50 [1]: 32.3 µM (active)

COc1ccccc1CNc1nc(-c2cc(C)n(C)c2C)cs1
IC50 [2]: 50 µM (inactive)

CCCCC(CC)CN1C(=O)/C(=C/c2ccncc2)SC1=S (configuration not stated)
EC50 (Streptococcus): 9.05 µM (active)
EC50 (BJ [3]): > 150 µM (not active)
EC50 [4]: > 150 µM (not active)
AC50 (INS1): 17.7 µM (active)
EC50 (BJ [5]): > 150 µM (not active)
EC50 (BJ [6]): > 150 µM (not active)
EC50 (Streptokinase A): > 150 µM (not active)
AC50 [7]: 7.84 µM (active)
EC50 [8]: 2.59 µM (active)

Sc1nnc(-c2ccco2)n1/N=C/C(Cl)=C/c1ccccc1
AC50 [9]: 0.798 µM (active)
IC50 (Genome polyprotein): 62.7 µM (active)

Cc1cc(NC(=O)c2noc3c2CCc2ccccc2-3)n(-c2ccccc2)n1
IC50 [2]: > 64 µM (inactive)
